Assay results: patent US10472353B2, “Salt and crystal forms of PLK-4 inhibitor” (University Health Network, priority 2013, dated 2019)
Structures can show the parent of a compound that is named as a salt. Where two headings read alike, the source gives them in different places.

What was measured:
[1] = Gravimetric moisture sorption (dynamic vapour sorption, 25° C.); format: physicochemical; conditions: for Gravimetric Moisture Sorption: 25° C.
Protocol: Gravimetric moisture sorption experiments were carried out on a Hiden dynamic vapour sorption analyzer by first holding the sample at 40% RH and 25° C. until an equilibrium weight was reached or for a maximum of four hours. The sample was then subjected to an isothermal (25° C.) adsorption scan from 40 to 90% RH in steps of 10%. The sample was allowed to equilibrate to an asymptotic weight at each point for a maximum of four hours. Following adsorption, a desorption scan from […] RH (at 25° C.) was run in steps of −10% again allowing a maximum of four hours for equilibration to an asymptotic weight. An adsorption scan was then performed from 0% RH to 40% RH in steps of +10% RH.

[2] = Differential scanning calorimetry, phase transition of the polymorphs; format: physicochemical
Protocol: DSC analyses were carried out on a Mettler 822e differential scanning calorimeter or a TA instruments Q2000. Samples were weighed in an aluminum pan, covered with a pierced lid, and then crimped. Analysis conditions were 30-120, 30-200, 30-300° C. and 40-300° C. ramped at 10° C./min.
Form D can be directly prepared as follows: A 250-mL three neck RBF equipped with a stir bar was charged with compound (I) (6.01 g, 11 mmol) and fumaric acid (1.41 g, 12 mmol). Acetone (50 mL) was added and the slurry was heated to 50° C. until the solution became clear. Precipitation was observed after 10 min, and stirring was continued for an additional 30 min. MTBE (25 mL) was added and the solution was cooled to rt and stirred overnight. The solids were filtered and dried under vacuum at 60° C. for 2 d to give the title compound (I) as a white solid (6.65 g, 91%).

[3] = Pharmacokinetics after single oral dose, powder in capsule, plasma levels of compound (I) by LC/MS; format: in vivo, female Sprague-Dawley rats; conditions: Sprague-Dawley rats
Protocol: A single oral dose in solution and as powder in capsule of the HCl salt of (I), fumarate form D and maleate form A were administered to female Sprague-Dawley rats at 5 mg/kg. Blood samples were collected in the presence of lithium heparin, and were centrifuged to generate plasma. The plasma was then analyzed for compound (I) plasma levels by LC/MS.
All animals involved in the dosing schedule were weighed and assigned numbers. All capsules (Size 9 porcine hard gelatin capsules, Torpac) corresponding with each animal to be dosed were carefully numbered with a fine tip Sharpie. A small plastic weighing dish was placed on the scale, with one capsule lid placed on the dish and the base of the capsule loader with the other part of the capsule was loaded in the reservoir. The balance was tared. A funnel was placed on top of the capsule loading apparatus and the total mass was carefully noted. A piece of 4″×4″ wax paper was folded in half creating a crease down the median. A small amount of finely ground compound (Ground the compound if required using mortar and pestle) was deposited in the crease of the wax paper and refolded. The folded wax paper was gently angled over the capsule loader funnel apparatus. A fine scapula was used to tease an amount of compound powder out of the crease onto the funnel allowing it to trickle into the loading bay and ultimately the capsule. The difference in mass from the total mass was noted. The capsule loading funnel was removed and the balance door closed to ascertain the absolute weight of compound inside the capsule. The funnel was returned to the capsule loading apparatus and loading continued until the desired amount of drug was inside the capsule. Note: When adding minute quantities to the capsule, simply brushed fine powered drug that settled on the funnel into the loading column. The funnel was removed and the weight was recorded. Calculated the amount of actual drug by multiplying weighed material by the bioequivalence ratio. The amount of actual drug was recorded. The capsule lid on the weighing dish was used to close the capsule tightly until it clicked into place.
All animals (n=3/group) were dosed orally in a volume of 5 mL/kg. Following dosing, each rat was bled at each of the designated time points. For control animals, blood was collected by the same procedure. Blood was collected from the lateral saphenous vein. Blood aliquots (˜50 μL) were collected in tubes coated with lithium heparin, mixed gently, then kept on ice and centrifuged at 2,500×g for 15 minutes at RT, within 1 hour of collection. The plasma layer was collected, kept on ice and finally maintained frozen at −80° C. until further processing.
Bioanalytical quantitation using HPLC/tandem quadruple mass spectrometry (HPLC-MS) was performed. Plasma concentrations and […] were calculated and reported.
A 5 mg/mL standard solution in DMSO was diluted 100 fold and subsequently serial diluted in 50% DMSO. Aliquots (2 μL) of the serial dilutions were mixed with 18 μL of control plasma (20 μL total) for use as a standard curve. Plasma samples (20 μL) and standard samples were then diluted 5× with ice cold acetonitrile containing 100 ng/mL verapamil as internal standard (80% (v/v) acetonitrile). Acetonitrile precipitated samples and standards were filtered through 0.22 μm membranes in a 96-well format. Filtrates were then diluted with water to 30% acetonitrile.
LC: 10 μL of each sample and standard were injected onto a Waters Acquity CSH 1.7 μm 2.1×100 mm column at 0.6 mL/min by an Acquity UPLC. The C18 column was equilibrated at 10% acetonitrile. Compounds were eluted with a gradient to 99% acetonitrile. All mobile phases contained 0.1% (v/v) formic acid.
MS: Column eluent was analyzed by electrospray ionization into a tandem quadrupole mass spec system (Waters Xevo TQ). Eluent composition was analyzed for three ion-pairs specific for the internal standard and three ion-pairs specific for the analyte. […]

[4] = Solubility in deionized water; format: physicochemical

## COc1ccc2c(c1)[C@]1(C[C@H]1c1ccc3c(/C=C/c4ccc(CN5C[C@@H](C)O[C@@H](C)C5)cc4)n[nH]c3c1)C(=O)N2 [1:1 Compound (I) fumarate]
[1]
  Hygroscopicity (in words): non-hygroscopic

## COc1ccc2c(c1)[C@]1(C[C@H]1c1ccc3c(/C=C/c4ccc(CN5C[C@@H](C)O[C@@H](C)C5)cc4)n[nH]c3c1)C(=O)N2 [1:1 compound (I) maleate]
[1]
  Hygroscopicity (in words): non-hygroscopic

## COc1ccc2c(c1)[C@]1(C[C@H]1c1ccc3c(/C=C/c4ccc(CN5C[C@@H](C)O[C@@H](C)C5)cc4)n[nH]c3c1)C(=O)N2 [Fumarate (form D)]
[2]
  Stability among the four fumarate polymorphs (phase transition by DSC): highest stability
[3]; 5.0 mg/kg
  AUC0-tlast: 2780 ng·h/mL
  Cmax: 270 ng/mL
[4]; listed as Fumarate D
  Solubility in DI water: 0.17 mg/mL
[1]; 60% RH, listed as Fumarate D
  Gravimetric Moisture Sorption: 2.1 wt % 60% RH
[1]; 90% RH, listed as Fumarate D
  Gravimetric Moisture Sorption: 4.0 wt % 90% RH

## COc1ccc2c(c1)[C@]1(C[C@H]1c1ccc3c(/C=C/c4ccc(CN5C[C@@H](C)O[C@@H](C)C5)cc4)n[nH]c3c1)C(=O)N2 [Fumarate B]
[1]; 60% RH
  Gravimetric Moisture Sorption: 3.7 wt % 60% RH
[1]; 90% RH
  Hydrate formed on moisture sorption: tetrahydrate
  Gravimetric Moisture Sorption: 10.5 wt % 90% RH
[1]; listed as Form B
  Hygroscopicity (in words): hygroscopic

## COc1ccc2c(c1)[C@]1(C[C@H]1c1ccc3c(/C=C/c4ccc(CN5C[C@@H](C)O[C@@H](C)C5)cc4)n[nH]c3c1)C(=O)N2 [Fumarate C]
[4]
  Solubility in DI water: 0.625 mg/mL

## COc1ccc2c(c1)[C@]1(C[C@H]1c1ccc3c(/C=C/c4ccc(CN5C[C@@H](C)O[C@@H](C)C5)cc4)n[nH]c3c1)C(=O)N2 [HCl]
[3]; female, Sprague-Dawley, rat, plasma, po, 5 mg/kg, read-out: AUC0-tlast
  AUC(0-t): 2400 ng·h/mL
[3]; female, Sprague-Dawley, rat, plasma, po, 5 mg/kg, read-out: Cmax
  Cmax: 250 ng/mL
[4]
  Solubility in DI water: ≥100 mg/mL

## COc1ccc2c(c1)[C@]1(C[C@H]1c1ccc3c(/C=C/c4ccc(CN5C[C@@H](C)O[C@@H](C)C5)cc4)n[nH]c3c1)C(=O)N2 [Maleate (form A)]
[3]; 5.0 mg/kg
  AUC0-tlast: 1500 ng·h/mL
  Cmax: 200 ng/mL
[1]; 60% RH, listed as Maleate A
  Gravimetric Moisture Sorption: 1.3 wt %, 60% RH
[1]; 90% RH, listed as Maleate A
  Gravimetric Moisture Sorption: 2.2 wt %, 90% RH

## COc1ccc2c(c1)[C@]1(C[C@H]1c1ccc3c(/C=C/c4ccc(CN5C[C@@H](C)O[C@@H](C)C5)cc4)n[nH]c3c1)C(=O)N2 [Phosphate]
[4]
  Solubility in DI water: ≥100 mg/mL
[1]; 60% RH
  Gravimetric Moisture Sorption: 6.1 wt % 60% RH
[1]; 90% RH
  Gravimetric Moisture Sorption: 10.9 wt % 90% RH
